Columns and labels:
[1] = molecular target: T1, squalene synthase (Rattus norvegicus, UniProt Q02769); test: Inhibition of squalene synthase in rat liver microsomal preparations; assay type: biochemical
T1 construct: squalene synthase in rat liver microsomal preparations; from tissue; host or cells: rat liver microsomes
T1 sequence (Q02769 1-416): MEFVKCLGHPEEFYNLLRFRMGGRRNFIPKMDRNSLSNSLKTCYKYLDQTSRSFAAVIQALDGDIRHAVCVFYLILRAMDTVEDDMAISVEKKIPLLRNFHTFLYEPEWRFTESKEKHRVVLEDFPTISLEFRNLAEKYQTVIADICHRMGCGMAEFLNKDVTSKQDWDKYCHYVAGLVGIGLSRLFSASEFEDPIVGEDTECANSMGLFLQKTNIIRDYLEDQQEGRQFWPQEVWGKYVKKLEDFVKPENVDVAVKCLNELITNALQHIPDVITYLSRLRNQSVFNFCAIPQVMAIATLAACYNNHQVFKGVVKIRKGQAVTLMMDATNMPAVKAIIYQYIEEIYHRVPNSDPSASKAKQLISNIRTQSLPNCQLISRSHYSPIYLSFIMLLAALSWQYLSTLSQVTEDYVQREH

[2] = molecular target: farnesyl: protein transferase (Oryctolagus cuniculus, UniProt G1SFC8+G1T7D9); test: Inhibition of farnesylation of p21ras precursor (H-ras protein) by farnesyl: protein transferase in rabbit reticulocyte lysate, [3H]-FPP incorporation; details: read-out: IC50-values, H-ras protein 30 µg/ml, 1 µM [3H]-farnesyl pyrophosphate, 37°C for 30 min
Chain of farnesyl: protein transferase (G1T7D9 entry or part of it, one chain of several): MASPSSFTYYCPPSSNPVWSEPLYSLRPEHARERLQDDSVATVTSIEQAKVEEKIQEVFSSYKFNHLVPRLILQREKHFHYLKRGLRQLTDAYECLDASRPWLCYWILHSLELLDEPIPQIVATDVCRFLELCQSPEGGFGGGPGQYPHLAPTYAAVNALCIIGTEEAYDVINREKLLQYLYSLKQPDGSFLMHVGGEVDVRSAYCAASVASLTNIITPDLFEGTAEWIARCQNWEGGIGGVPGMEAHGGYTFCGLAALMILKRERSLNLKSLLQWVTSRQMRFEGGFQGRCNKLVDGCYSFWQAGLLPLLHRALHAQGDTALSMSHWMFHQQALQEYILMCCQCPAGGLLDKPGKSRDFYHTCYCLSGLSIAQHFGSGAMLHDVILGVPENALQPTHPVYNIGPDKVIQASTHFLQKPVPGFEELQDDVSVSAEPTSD

Q: Which results are given for CC(C)=CCCC(C)=CCCC(C)=CCCP(=O)(O)OP(=O)(O)O [compound 1, farnesylmethylphosphonophosphate]?
A: IC50 [1]: 480 µM; IC50 [2]: 4 µM

Q: With CC(C)=CCCC(C)=CCCC(C)=CCP(=O)(O)OP(=O)(O)O [compound 3, farnesylphosphonophosphate] as the compound, how does the IC50 [1] read?
A: 120 µM

Q: And the IC50 [2]?
A: < 1 µM

Reference: patent EP0540782B1, “Use of analogues of polyisoprenyl pyrophosphate for inhibiting protein isoprenylation” (NEDERLANDSE ORGANISATIE VOOR …, priority 1991, dated 1993)
